ChEMBL document CHEMBL1144536, “Ring substituent effects on biological activity of vinyl sulfones as inhibitors of HIV-1” (Bioorg Med Chem, 2007)

How the values were obtained:
[1] = Selectivity ratio of EC50 for HIV1 to IC50 for HeLa H1-JC.37 cells; assay type: functional
[2] = tested on: Human immunodeficiency virus 1; assay: Antiviral activity against HIV1 by focal infectivity assay; assay type: functional, organism-based
[3] = target: T1, Human immunodeficiency virus type 1 integrase (Human immunodeficiency virus 1, UniProt Q7ZJM1); assay: Inhibition of HIV1 integrase-mediated 3'-processing activity
T1 sequence (Q7ZJM1 whole entry): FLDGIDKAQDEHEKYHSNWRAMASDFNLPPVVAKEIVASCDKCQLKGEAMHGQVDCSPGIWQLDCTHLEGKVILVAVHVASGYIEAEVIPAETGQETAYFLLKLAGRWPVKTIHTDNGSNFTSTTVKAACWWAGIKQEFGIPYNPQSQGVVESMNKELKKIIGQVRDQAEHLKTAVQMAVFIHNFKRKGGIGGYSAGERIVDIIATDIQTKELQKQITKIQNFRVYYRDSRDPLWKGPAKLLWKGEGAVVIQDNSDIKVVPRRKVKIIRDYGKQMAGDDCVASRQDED

[4] = target: T1, Human immunodeficiency virus type 1 integrase; assay: Inhibition of HIV1 integrase-mediated integration activity
[5] = Cytotoxicity against HeLa H1-JC.37 cells by MTS assay; assay type: cell-based; conditions: Homo sapiens

Row | SMILES | Ratio IC50/EC50 [1] | EC50 [2] | IC50 [3] | IC50 [4] | IC50 [5]
1 | O=S(=O)(CCc1ccc(O)c(O)c1)CS(=O)(=O)CCc1ccc(O)c(O)c1 | 27 | 6.2 µM | 40 µM | 17 µM | 170 µM
2 | O=S(=O)(/C=C/c1ccc2c(c1)OCCO2)CS(=O)(=O)/C=C/c1ccc2c(c1)OCCO2 |  | > 10 µM | > 100 µM | > 100 µM | 
3 | O=S(=O)(/C=C/c1ccc2[nH]ccc2c1)CS(=O)(=O)/C=C/c1ccc2[nH]ccc2c1 |  | > 10 µM | > 100 µM | 95 µM | 
4 | O=S(=O)(/C=C/c1cccc(Br)n1)CS(=O)(=O)/C=C/c1cccc(Br)n1 |  | > 10 µM | > 1000 µM | 900 µM | 
5 | O=S(=O)(/C=C/c1cc(F)c(F)c(F)c1)CS(=O)(=O)/C=C/c1cc(F)c(F)c(F)c1 | 3.9 | 2 µM | > 100 µM | > 100 µM | 7.8 µM
6 | COc1cc(OC)c(OC)cc1/C=C/S(=O)(=O)CS(=O)(=O)/C=C/c1cc(OC)c(OC)cc1OC |  | > 10 µM | > 1000 µM | > 1000 µM | 
7 | COc1cc(/C=C/S(=O)(=O)CS(=O)(=O)/C=C/c2cc(OC)c(OC)cc2[N+](=O)[O-])c([N+](=O)[O-])cc1OC |  | > 10 µM | 500 µM | 500 µM | 
8 | O=S(=O)(/C=C/c1cc(Cl)ccc1Cl)CS(=O)(=O)/C=C/c1cc(Cl)ccc1Cl | 0.77 | 3.4 µM | > 100 µM | > 100 µM | 2.6 µM
9 | O=C(O)c1ccc(/C=C/S(=O)(=O)CS(=O)(=O)/C=C/c2ccc(C(=O)O)cc2)cc1 |  | > 10 µM | 33 µM | 33 µM | 
10 | COc1cc(Br)c(/C=C/S(=O)(=O)CS(=O)(=O)/C=C/c2cc(OC)c(OC)cc2Br)cc1OC |  | > 10 µM | 850 µM | 500 µM | 
11 | O=S(=O)(CCc1ccccc1)CS(=O)(=O)CCc1ccccc1 |  | > 10 µM | > 100 µM | > 100 µM | > 150 µM
12 | COc1ccc(Br)cc1/C=C/S(=O)(=O)CS(=O)(=O)/C=C/c1cc(Br)ccc1OC |  | > 10 µM | > 100 µM | > 100 µM | 
13 | O=S(=O)(/C=C/c1ccccc1OCc1ccccc1)CS(=O)(=O)/C=C/c1ccccc1OCc1ccccc1 |  | > 10 µM | > 100 µM | > 100 µM | 
14 | O=S(=O)(/C=C/c1ccc(OCc2ccccc2)c(OCc2ccccc2)c1)CS(=O)(=O)/C=C/c1ccc(OCc2ccccc2)c(OCc2ccccc2)c1 |  | > 10 µM | > 100 µM | > 100 µM | 
15 | O=S(=O)(CCc1cc(F)c(F)c(F)c1)CS(=O)(=O)CCc1cc(F)c(F)c(F)c1 |  | > 10 µM | 900 µM | 333 µM | 110 µM
16 | O=S(=O)(/C=C/c1ccccc1)CS(=O)(=O)/C=C/c1ccccc1 | 9.9 | 1.2 µM | > 100 µM | > 100 µM | 12 µM
17 | O=S(=O)(/C=C/c1cc(OCc2ccccc2)c(OCc2ccccc2)c(OCc2ccccc2)c1)CS(=O)(=O)/C=C/c1cc(OCc2ccccc2)c(OCc2ccccc2)c(OCc2ccccc2)c1 |  | > 10 µM | > 100 µM | > 100 µM | 
18 | COc1cc(/C=C/S(=O)(=O)CS(=O)(=O)/C=C/c2cc(Br)c(OC)c(OC)c2)cc(Br)c1OC |  | > 10 µM | > 100 µM | > 100 µM | 
